5 compounds from patent US10689335B2, “Hydrogen sulfide precursors and conjugates thereof” (Georgia State University Research Foundation, Inc., priority 2015, dated 2020) can be followed below.

The test system of one assay is esterase. The assay is described as follows: Esterase triggered lactone formation monitored by LC-MS/MS. Format: biochemical. As for the experimental part: The release of hydrogen sulfide and its release rate were detected using LC-MS. A 200 μM HP 10 reaction mixture was treated with esterase for 25 min which led to formation of more than 180 μM of the lactone product as shown in FIG. 2.
HP-101 (final concentration: 200 μM) was added to PBS (10 mL) with 1 unit/mL esterase at 37° C. Reaction mixture (10 μL) was taken out every 3 minutes and added into a vial containing 990 μL methanol at −78° C. for 5 minutes. The mixture (14.5×1000 rp) was centrifuged, and the supernatant was used as the sample for LC-MS/MS analysis (Agilent 1100 LC, 6410 TripleQ MS/MS, Ion transition: 205.0/135.0, positive mode).

The next assay has as its system porcine liver esterase. In words: Esterase-induced H2S release detected with fluorescent probe WSP-5. Format: biochemical. Particulars: 200 μM, porcine liver esterase 4 u/mL in PBS at 37° C. As for the experimental part:
The ability of esterases to release hydrogen sulfide, as shown in Scheme 17, was examined using a well-known hydrogen sulfide fluorescent probe WSP-5 (3-oxo-3H-spiro[isobenzofuran-1,9′-xanthene]-3′,6′-diyl bis(2-(pyridin-2-yldisulfanyl)benzoate) to detect its production in the hydrogen sulfide precursor (HP) reaction mixture. A 200 μM solution of HP 10 was treated with porcine liver esterase (Aldrich, E2884), 4 u/mL) in PBS at 37° C., then 5 μL reaction mixture was taken into 995 μL acetonitrile and detected using WSP-5. The results are shown in FIG. 1 which indicate that HP 10 releases H2S in phosphate buffer saline with 4 units of esterase.
Because of the high volatility of H2S, when the escape rate is greater than formation rate, the concentration decreases. The peak concentration of H2S also appeared within about 25 min.
HP-101 (final concentration: 200 μM) or other control compounds were added to PBS (10 mL) buffer containing esterase (1 unit/mL) at 37° C. After 15 minutes, aliquots of 100 μL samples were taken out and added into 100 μL PBS containing 50 μM WSP-5 and 100 μM CTAB in 96-well plate. After mixing and standing for 5 min at room temperature, the fluorescent intensities at 535 nm were recorded by a plate reader with excitation at 485 nm. (FIG. 1). […]

In assay [1] the test system is TNF-α secretion in RAW 264.7 cells. The assay is described as follows: Anti-inflammation study: TNF-α in LPS-stimulated RAW 264.7 cell culture supernatant (ELISA). Conditions: 1 hour co-treatment with 1 unit/mL esterase and 1 μg/mL LPS. The class given is cell-based. As for the experimental part:
RAW 264.7 cells were seeded in the 48-well plate one day before the experiment. Lipopolysaccharide was added into the cell culture to initiate the inflammatory response in RAW 264.7 cells and to trigger the expression of cytokines. RAW 264.7 cells were co-treated with HPs (HP-101, HP-102, HP-103, HP-104) or iHPs, 1 unit/mL esterase and 1 μg/mL of LPS for 1 hour. Thereafter, the cell culture supernatant was collected. The concentrations of TNF-α in the cell culture supernatant was quantified by a commercial ELISA kit (ELISA Ready-SET-Go!®-eBioscience).
For orientation: An ELISA detects its analyte on a solid surface through an enzyme-linked reagent.

For assay [2], the system named is PLE. In words: Esterase-triggered release of H2S and parent drug from hybrid precursor (methylene blue method, HPLC). The class given is biochemical, pig. Particulars: 200 μM in phosphate buffer pH 7.4, PLE 20 unit/mL, 37° C. As for the experimental part:
To a 9.9 mL phosphate buffer (pH 7.4) solution was added 11.1 mg (200 unit) PLE, followed by the addition of 100 μL 20 mM HP-105 stock solution (final concentration: 200 μM). The resultant solution was sealed and stirred at 37° C. At every 30 min, 200 μL of reaction solution was taken into a 1.5 mL vial containing 200 μL zinc acetate (1%, w/v). Then the vial was centrifuged for 10 min. (14.5×1000 rp). The supernatant was removed and the precipitate was washed with PBS solution (100 μL×2). 600 μL of N,N-dimethyl-1,4-phenylenediaminesulfate (0.2% w/v in 20% H2SO4 solution) and 50 μL ferric chloride (10% w/v in 0.2% H2SO4 solution) was added to the vial. Then the vial was centrifuged for 5 min (14.5×1000 rp). The absorbance (at 740 nm) of the resulting solution was measured (after stirring for 10 min). H2S concentration was calculated based on a calibration curve of NaHS. (FIG. 7A).

The test system of assay [3] is PLE. In words: H2S concentration measurement by electrode probe ISO-H2S-2 in phosphate buffer with esterase. Format: biochemical, pig. Conditions: 200 μM precursor in PBS at 37° C. with 1 unit/mL PLE. As for the experimental part: HPs (compounds HP-101, HP-102, HP-103, HP-104; final concentration=200 μM) were added to an incubation chamber (World Precision Instruments; WPI) containing phosphate buffer (10 mM; pH 7.4, 10 mL), and esterase (1 unit/mL) at 37° C. H2S formation was detected with the use of a 2-mm H2S-selective microelectrode (ISO-H2S-2; WPI) attached to an Apollo 1100 Free Radical Analyser (WPI) and shown as picoamps current generated. A standard curve (using Na2S.9H2O) was generated by following literature procedures, but using PBS containing esterase at 37° C. (FIG. 4).
H2S release from these precursors was studied (FIG. 4). […] For 200 μM of the precursor compound in PBS at 37° C. with 1 unit/mL PLE, the peak H2S concentration for the fastest one, HP-101, was about 95 μM at 15 min; and for the slowest one, HP-104, it was about 13 μM at 43 min.

The subject of assay [4] is esterases produced by the cells. The assay is described as follows: H2S release from HP-101 in cell culture media (ISO-H2S-2 electrode). Conditions: 200 μM, 37° C. The method, then:
The in vitro release of H2S from HP-101 was studied under various conditions such as HP-101 (200 μM) in DMEM media (5 mL), cell+DMEM media without FBS, and cell+DMEM media with FBS.
HP-101 (200 μM) was added to an incubation chamber (World Precision Instruments; WPI) containing cell culture media (10 mL) at 37° C. H2S formation was detected with the use of an ISO-H2S-2 probe attached to an Apollo 1100 Free Radical Analyser and shown as picoamps current generated. A standard curve (using Na2S.9H2O) was also generated under the same conditions.

As for `CC(=O)Oc1cc(C)cc(C)c1C(C)(C)CC(=O)S` [HP 10, 3-(2-acetoxy-4,6-dimethylphenyl)-3-methylbutanethioic S-acid], in the assay with esterase (200 μM reaction mixture treated with esterase for 25 min), the lactone product formed result is “more than 180 μM”. The H2S released entry with esterase (200 μM, esterase, 25 min, inferred from lactone formed) was “more than 90%”. Besides, the “H2S release detected using WSP-5” value in the assay with porcine liver esterase is listed as “releases H2S”.
For the compound `[Na+].[Na+].[S-2]` [Na2S], the “effect on TNF-α secretion” value in assay [1] is on record as “pro-inflammatory effect”.
For the compound `C1COCCN1.COc1ccc(P(=S)(S)N2CCOCC2)cc1` (stereo not shown) [GYY 4137], the “effect on TNF-α secretion” value in assay [1] is “effectively inhibited TNF-α secretion”.
For the compound `COc1ccc2cc([C@H](C)C(=O)Oc3cc(C)cc(C)c3C(C)(C)CC([O-])=S)ccc2c1.[Na+]` [HP-105, Sodium (S)-3-(2-((2-(6-methoxynaphthalen-2-yl)propanoyl)oxy)-4,6-dimethylphenyl)-3-methylbutanethioate], the “generation of naproxen and H2S by treatment with an esterase” value in the assay with PLE [2] was “could generate naproxen and H2S”.
For the compound `CC(=O)Oc1cc(C)cc(C)c1C(C)(C)CC(=O)[S-].[Na+]` [HP-101, Sodium 3-(2-acetoxy-4,6-dimethylphenyl)-3-methylbutanethioate], in the assay with PLE [3], the “peak H2S concentration” value is reported as “about 95 μM” and the “time of peak H2S concentration” value was 15 min. Further, in assay [4], the “H2S release in media collected after overnight of cell culture” value is reported as “released at a moderate rate”. Also, the “H2S release in DMEM alone” value in assay [4] (DMEM media without cells) is on record as “did not release H2S”.
